The values below come from patent publication US9585858B2, “Pharmaceutical composition containing 13 triglycerides, and preparations and use thereof” (ZHEJIANG KANGLAITE GROUP CO., LTD., priority 2014, dated 2017).

The subject of test [1] is NK cells. Briefly: Activity of NK cells in mice bearing cancer. It counts as in vivo, DBA/2 mice. As to conditions: 20 mg/kg, iv × 7. On the procedure: Each of 60 DBA/2 mice was inoculated subcutaneously with 1×10^4 L1210 leukemia cells of mice. Next day, the mice were grouped randomly into 6 groups (10 mice per group): Lentinan 20 mg/kg, the injection of the invention (6.25 ml/kg, 12.5 ml/kg and 25 ml/kg), solvent control and NS control. Animals were administered, i.v., for 7 days, then sacrificed. Spleens were picked up in aseptic condition. Splenocytes were prepared and adjusted into 1×10^6/ml. The activity of NK cells was detected by using the inhibition on ^3H-TdR incorporation. To wells of a 96 well microplate were added splenocytes cells (effector cells) 100 μl/well, YAC-1 cells (target cells, 1×10^4 cells/ml) 100 μl/well and ^3H-TdR 0.5 μci/well, in triplicate. After being incubated in a 37° C. incubator under 5% CO2 for 24 h, cells were collected, and CPM values were determined. The specific percentage inhibition (Pi), indicating the activity of NK cells, was calculated according to the above formula.

Test [2] relates to mice bearing L1210 leukemia cells. Put plainly: Splenic lymphopoiesis in mice bearing L1210 leukemia cells. It counts as in vivo, DBA/2 mice. Conditions: 20 mg/kg, iv × 7. On the procedure: Each of 60 DBA/2 mice was inoculated subcutaneously with 1×10^4 L1210 leukemia cells of mice. Next day, the mice were grouped randomly into 6 groups (10 mice per group): Lentinan 20 mg/kg, the injection of the invention (6.25 ml/kg, 12.5 ml/kg and 25 ml/kg), solvent control and NS control. Animals were administered, i.v., for 7 days, then sacrificed. Spleens were picked up in aseptic condition. Splenocytes were counted and adjusted into 1×10^7/ml. Cells (100 μl/well) and medium (100 μl/well) were added into wells of a 96 well microplate in triplicate. The 96 well microplate was incubated in a 37° C. incubator under 5% CO2 for 48 h. Then, ^3H-TdR (0.5 μci/well) was added and the incubation was continued for 20 h. Cells were collected, and CPM values were determined and compared with control groups. […] Lentinan has also shown immuno-enhancement effect.

In a further test the test system is Splenocytes. Briefly: Splenic lymphopoiesis induced by ConA in mice in vitro (3H-TdR incorporation). In kind it is cell-based, C57BL/6 mice. On the procedure: Spleens were picked up from C57BL/6 mice in aseptic condition. Splenocytes were separated and the concentration of cells was adjusted to 1×10^7 cells/ml with RPMI 1640+15% FCS medium. The experiment groups were as follows: the injection of the invention in four concentrations, lentinan (positive control group) in four concentrations, corresponding solvent (blank control I) and medium (blank control II). 100 μl Cells, 100 μl solution of drug/control and 50 μl ConA were added in each well in triplicate. The 96 well microplate was incubated in a 37° C. incubator under 5% CO2 for 48 h. ^3H-TdR (0.5 μci/well) was added and the incubation was continued for 20 h. Cells were collected, and CPM values were determined in a liquid scintillation counter and compared with control groups. It is shown in the results (table 3) that the injection of the invention, as same as lentinan, has obviously facilitated the splenic lymphopoiesis in mice in vitro and the effect is linear dependent to the concentration.

Test [3] relates to NK cells. Briefly: Activity of NK cells in mice in vitro (inhibition of 3H-TdR incorporation, YAC-1 target cells). It counts as cell-based, C57BL/6 mice. As to conditions: for CPM (x ± SD), activity of NK cells in mice in vitro: splenocytes:YAC-1 100:1, 24 h. On the procedure:
Method: The activity of NK cells were detected by the inhibition on ^3H-TdR incorporation.
Spleens were picked up from C57BL/6 mice in aseptic condition. Splenocytes, as effector cells, were adjusted to 1×10^6 cells/ml. YAC-1 cells, target cells, which have been cultured for 24 h, were adjusted to 1×10^4 cells/ml. The cells were added into wells of a 96 well microplate (100 μl/well). The experiment groups were as follows: the injection of the invention in four concentrations, lentinan (positive control group) in four concentrations, corresponding solvent (blank control I) and medium (blank control II). To each well of a 96 well microplate were added Splenocytes: YAC-1 cells=100: 1 (100 μl), test sample (100 μl) and ^3H-TdR 0.5 μci/well. After being incubated in a 37° C. incubator under 5% CO2 for 24 h, cells were collected, and CPM values were determined. The specific percentage inhibition (Pi), indicating the activity of NK cells, was calculated according to the formula: Pi=(1−CPMExp./CPMcont.)×100%

The test system of a further test is IL-2. Briefly: Production of IL-2 in mice suffering from L1210 leukemia (CTLL cell 3H-TdR incorporation). In kind it is in vivo, DBA/2 mice. Conditions: 20 mg/kg, iv × 7. On the procedure: Each of 60 DBA/2 mice was inoculated subcutaneously with 1×10^4 L1210 leukemia cells of mice. Next day, the mice were grouped randomly into 6 groups (10 mice per group): Lentinan 20 mg/kg, the injection of the invention (6.25 ml/kg, 12.5 ml/kg and 25 ml/kg), solvent control and NS control. Animals were administered, i.v., for 7 days, then sacrificed. Spleens were picked up in aseptic condition. Splenocytes were prepared and adjusted into 1×10^7/ml. To each well of a 24 well plate were added splenocytes cells (2 ml) and Con A (5 μg/ml). After the plate was incubated in a 37° C. incubator under 5% CO2 for 24 h, the supernate was collected. The activity of IL-2 was determined in IL-2 dependent CTLL cell strain by using the method of ^3H-TdR incorporation.

For the substance Lentinan, the “CPM (x ± SD), activity of NK cells in mice bearing cancer” value in the test on NK cells [1] is recorded as 5660 ± 260 CPM. In the test on NK cells [1], the “Pi (%), activity of NK cells in mice bearing cancer” value is listed as 54.5%. Besides, in test [2], the “CPM (x ± SD), splenic lymphopoiesis in mice bearing L1210 leukemia cells” value was 7410 ± 770 CPM. Also, the “CPM (x ± SD), splenic lymphopoiesis in mice in vitro” value with Splenocytes (100 μl (1:1)) came to 7700 ± 747 CPM; in the test on Splenocytes (100 μl (1:2)), 11025 ± 1133 CPM; in the test on Splenocytes (100 μl (1:4)), 11555 ± 1279 CPM; in the test on Splenocytes (100 μl (stock solution)), 7420 ± 957 CPM. Moreover, the “Pi % (specific percentage inhibition, activity of NK cells) in vitro” value amounted to 33.5% with NK cells [3] (100 μl (1:1)), 35.5% in the test on NK cells [3] (100 μl (1:2)), 54.5% in the test with NK cells [3] (100 μl (1:4)) and 29.5% in the test with NK cells [3] (100 μl (stock solution)). Besides, the “CPM (x ± SD), activity of NK cells in mice in vitro” value amounted to 8130 ± 930 CPM with NK cells [3] (100 μl (1:1)), 7892 ± 995 CPM in the test with NK cells [3] (100 μl (1:2)), 5544 ± 85 CPM in the test with NK cells [3] (100 μl (1:4)) and 8625 ± 1135 CPM in the test on NK cells [3] (100 μl (stock solution)). For the same substance, the “CPM (x ± SD), production of IL-2 in mice suffering from L1210 leukemia” value in the test with IL-2 was 2750 ± 123 CPM.
